Common to all, as to format: cell-based
In test [1] the test system is MCF7-WT cells. As to the kind of experiment: In vitro anti-proliferation assay (CellTiter-Glo viability), MCF7-WT cells. The conditions noted are these: Homo sapiens, MCF7, 192 h, MCF7-WT cells supplemented with 0.1 nM b-estradiol; viability on day 8; relative IC50. How it is done: (§1) Test: In vitro anti-proliferation assay
(§2) Said test involves measuring the in vitro anti-proliferation activity of the compounds of the Table 1a.
(§3) The measurements of the anti-proliferation activities were made using MCF7-WT (ATCC), MCF7-Y537S and HCC1428-LTED cells as described hereunder.
(§4) On Day 1, MCF7-WT and MCF7-Y537S (Mol Cancer Ther. 2021 20(2):250-262), and HCC1428-LTED (J Clin Invest. 2010; 120(7):2406-2413) cells, were seeded at 2000 (WT and LTED) and 500 (Y537S) cells/well in phenol red free IMEM (Corning, 110-026-CV) with 5% Charcoal stripped-FBS and incubated overnight 37° C. and 5% CO2.
(§5) On day 2, compounds were tested in triplicate in 10-point dose response (1:3 serial dilutions with a top concentration starting 300 nM); DMSO for upper limit (negative control) and staurosporine (1 uM) for lower limit (positive control) were also included. MCF7-WT cells were then supplemented with final 0.1 nM b-estradiol. After treating the cells, the assay plates were transferred back in the incubator at 37° C. and 5% CO2.
(§6) On day 8, cell viability was measured per vendor recommendations (CellTiter-Glo, Promega). Relative IC50 measurements were calculated as follow using a 4-parameter logistic derived from Levenburg Marquardt algorithm (IDBS XL Model 205 fit within A-base).
On the technique in general: Cellular ATP, detected with luciferase, serves as a proxy for viable cell number.

Test [2] relates to HCC1428-LTED cells. As to the kind of experiment: In vitro anti-proliferation assay (CellTiter-Glo viability), HCC1428-LTED cells. The conditions noted are these: Homo sapiens, HCC1428, 192 h, viability on day 8, relative IC50, read-out: HCC 1428 IC50. How it is done:
as §1, §2, §3, §4, §5, §6

For test [3], the system named is MCF7-Y537S cells. As to the kind of experiment: In vitro anti-proliferation assay (CellTiter-Glo viability), MCF7-Y537S cells. The conditions noted are these: Homo sapiens, MCF7, 192 h, viability on day 8, relative IC50. As for the experimental part: as §1, §2, §3, §4, §5, §6

What is called IC50 is the concentration needed to halve the response being measured. As to `CN(C)C(=O)/C=C/CN1CC[C@H](Nc2ccc(C3=C(c4ccc(Cl)cc4Cl)CCCc4cc(C(=O)O)ccc43)cc2)C1` [Compound 16, (S,E)-8-(2,4-dichlorophenyl)-9-(4-((1-(4-(dimethylamino)-4-oxobut-2-en-1-yl)pyrrolidin-3-yl)amino)phenyl)-6,7-dihydro-5H-benzo[7]annulene-3-carboxylic acid], the results for the IC50 in test [1], in test [2] and in test [3] were 37 nM, 33 nM and 174 nM, respectively.

Take `CN(C)C(=O)/C=C/CN1CC[C@@H](Nc2ccc(C3=C(c4ccc(Cl)cc4Cl)CCCc4cc(C(=O)O)ccc43)cc2)C1` [Compound 17, (R,E)-8-(2,4-dichlorophenyl)-9-(4-((1-(4-(dimethylamino)-4-oxobut-2-en-1-yl)pyrrolidin-3-yl)amino)phenyl)-6,7-dihydro-5H-benzo[7]annulene-3-carboxylic acid]: the IC50 stood at 10 nM in test [1], 1 nM in test [2] and 138 nM in test [3].

With `CN(C)C(=O)/C=C/CN1CC/C(=C/c2ccc(C3=C(c4ccc(Cl)cc4Cl)CCCc4cc(C(=O)O)ccc43)cc2)C1` [Compound 20, 8-(2,4-dichlorophenyl)-9-(4-((Z)-(1-((E)-4-(dimethylamino)-4-oxobut-2-en-1-yl)pyrrolidin-3-ylidene)methyl)phenyl)-6,7-dihydro-5H-benzo[7]annulene-3-carboxylic acid], the IC50 was 41 nM in test [1], 1 nM in test [2] and ≥ 500 nM in test [3].

For the compound `CN(C)C(=O)/C=C/CN1CC(Nc2ccc(C3=C(c4ccc(Cl)cc4Cl)CCCc4cc(C(=O)O)ccc43)cc2)C1` [Compound 21, (E)-8-(2,4-dichlorophenyl)-9-(4-((1-(4-(dimethylamino)-4-oxobut-2-en-1-yl)azetidin-3-yl)amino)phenyl)-6,7-dihydro-5H-benzo[7]annulene-3-carboxylic acid], the figures for the IC50 in test [1], in test [2] and in test [3] were 28 nM, 2.1 nM and ≥ 500 nM, respectively.

As to `CN(C)C(=O)/C=C/CNCCOc1ccc(C2=C(c3ccc(Cl)cc3Cl)CCCc3cc(C(=O)O)ccc32)cc1` [Compound 22, (E)-8-(2,4-dichlorophenyl)-9-(4-(2-((4-(dimethylamino)-4-oxobut-2-en-1-yl)amino)ethoxy)phenyl)-6,7-dihydro-5H-benzo[7]annulene-3-carboxylic acid], the results for the IC50 in test [1], in test [2] and in test [3] were 11 nM, 0.6 nM and 184 nM, respectively.

Consider `CN(C)C(=O)/C=C/CN1CC[C@H](Oc2ccc(C3=C(c4ccc(Cl)cc4Cl)CCCc4cc(O)ccc43)cc2)C1` [Compound 23, (S,E)-4-(3-(4-(8-(2,4-dichlorophenyl)-3-hydroxy-6,7-dihydro-5H-benzo[7]annulen-9-yl)phenoxy)pyrrolidin-1-yl)-N,N-dimethylbut-2-enamide], for which the IC50 in test [1] amounted to 26 nM; in test [2] it was 0.03 nM; in test [3], 23 nM.

As for `CN(C)C(=O)/C=C/CN1CC[C@H](Oc2ccc(C3=C(c4ccc(Cl)cc4Cl)CCOc4cc(C(=O)O)ccc43)cc2)C1` [Compound 24, (S,E)-4-(2,4-dichlorophenyl)-5-(4-((1-(4-(dimethylamino)-4-oxobut-2-en-1-yl)pyrrolidin-3-yl)oxy)phenyl)-2,3-dihydrobenzo[b]oxepine-8-carboxylic acid], the IC50 in test [1] is 160 nM; in test [2], 4.4 nM; in test [3], ≥ 500 nM.

With `CN(C)C(=O)/C=C/CN1CC[C@H](Oc2ccc(C3=C(c4ccc(Cl)cc4Cl)CCc4cc(C(=O)O)ccc43)cc2)C1` [Compound 25, (S,E)-6-(2,4-dichlorophenyl)-5-(4-((1-(4-(dimethylamino)-4-oxobut-2-en-1-yl)pyrrolidin-3-yl)oxy)phenyl)-7,8-dihydronaphthalene-2-carboxylic acid], the IC50 in test [1] is 300 nM; in test [2] it was 17 nM; in test [3] it was ≥ 500 nM.

On to `CN(C)C(=O)/C=C/CN1CC[C@H](Oc2ccc(C3=C(c4ccc(Cl)cc4Cl)CCCc4ccccc43)cc2)C1` [Compound 26, (S,E)-4-(3-(4-(8-(2,4-dichlorophenyl)-6,7-dihydro-5H-benzo[7]annulen-9-yl)phenoxy)pyrrolidin-1-yl)-N,N-dimethylbut-2-enamide], for which the IC50 in test [1] stood at 21 nM; in test [2] it was 0.4 nM; in test [3], 193 nM.

On to `CN(C)C(=O)/C=C/CN1CC[C@H](Oc2ccc(C3=C(c4ccc(Cl)cc4Cl)CCSc4cc(O)ccc43)cc2)C1` [Compound 27, (S,E)-4-(3-(4-(4-(2,4-dichlorophenyl)-8-hydroxy-2,3-dihydrobenzo[b]thiepin-5-yl)phenoxy)pyrrolidin-1-yl)-N,N-dimethylbut-2-enamide], for which the IC50 was 2.9 nM in test [1], 0.02 nM in test [2] and 33 nM in test [3].

These data come from patent US20250250231A1, “NOVEL SUBSTITUTED 4-AMINO-4-OXO-BUT-2-ENYL DERIVATIVES, PROCESSES FOR THEIR PREPARATION AND THERAPEUTIC USES THEREOF” (SANOFI, priority 2022, published 2025).
